From patent US20110195949A1, “2-BENZOTHIOPHENYL- AND 2-NAPHTHYL-OXAZOLIDINONES AND THEIR AZAISOSTERE ANALOGUES AS ANTIBACTERIAL AGENTS” (ACTELION PHARMACEUTICALS LTD., priority 2008, published 2011) come the findings set out here.

The subject of the experiment is M. catarrhalis A894. The experiment is described as follows: Minimal inhibitory concentration (MIC), microdilution method in cation-adjusted Mueller-Hinton Broth (CLSI M7-A7). As to conditions: Moraxella catarrhalis, strain A894. The experiment is classed as cell-based. How it is done: Minimal inhibitory concentrations (MICs; mg/L) were determined in cation-adjusted Mueller-Hinton Broth by a microdilution method following the description given in “Methods for Dilution Antimicrobial Susceptibility Tests for Bacteria that Grow Aerobically”, Approved standard, 7th ed., Clinical and Laboratory Standards Institute (CLSI) Document M7-A7, Wayne, Pa., USA, 2006. All Example compounds were tested against several Gram positive and Gram negative bacteria such as S. aureus, E. faecalis, S. pneumoniae, M. catarrhalis, A. baumanii, E. coli or P. aeruginosa.
(Dilution methods test growth across graded concentrations, often in twofold steps.)

Values after ≈ are worked out from the molar mass of the structure shown.

A word on the MIC: it is the smallest concentration in the dilution series that meets the test's criterion for growth inhibition. Low values mean inhibition by little substance, high ones a need for much substance.

With `O=C1CSc2ccc(N3CC(CCCNCc4ccc5ccccc5n4)OC3=O)cc2N1` (racemic) [Example 1, rac-6-(2-oxo-5-{3-[(quinolin-2-ylmethyl)-amino]-propyl}-oxazolidin-3-yl)-4H-benzo[1,4]thiazin-3-one], the MIC was 0.5 µg/mL (≈ 1.11 µM).

On to `O=C1CSc2ccc(N3CC(CCCNCc4ccc5ccc(F)cc5n4)OC3=O)cc2N1` (racemic) [Example 2, rac-6-(5-{3-[(7-fluoro-quinolin-2-ylmethyl)-amino]-propyl}-2-oxo-oxazolidin-3-yl)-4H-benzo[1,4]thiazin-3-one], for which inhibition of growth (MIC) required 0.031 µg/mL (≈ 0.0664 µM).

Regarding `O=C1CSc2ccc(N3CC(CCCNCc4cc5ncccc5cc4F)OC3=O)cc2N1` (racemic) [Example 6, rac-6-(5-{3-[(6-fluoro-quinolin-7-ylmethyl)-amino]-propyl}-2-oxo-oxazolidin-3-yl)-4H-benzo[1,4]thiazin-3-one], the minimum inhibitory concentration (MIC) was at most 0.031 µg/mL.

Compound `O=C1CSc2ccc(N3CC(CCCNCc4ccc5c(F)cccc5n4)OC3=O)cc2N1` (racemic) [Example 7, rac-6-(5-{3-[(5-fluoro-quinolin-2-ylmethyl)-amino]-propyl}-2-oxo-oxazolidin-3-yl)-4H-benzo[1,4]thiazin-3-one] showed a minimal inhibitory concentration (MIC) of 0.063 µg/mL (≈ 0.135 µM).

Take `Cc1c(CNCCCC2CN(c3ccc4c(c3)NC(=O)CS4)C(=O)O2)sc2ccccc12` (racemic) [Example 8, rac-6-(5-{3-[(3-methyl-benzo[b]thiophen-2-ylmethyl)-amino]-propyl}-2-oxo-oxazolidin-3-yl)-4H-benzo[1,4]thiazin-3-one]: the minimum inhibitory concentration (MIC) was found to be 0.063 µg/mL (≈ 0.135 µM).

`O=C1CSc2ccc(N3CC(CCCNCc4cc5cccnc5s4)OC3=O)cc2N1` (racemic) [Example 9, rac-6-(2-oxo-5-{3-[(thieno[2,3-b]pyridin-2-ylmethyl)-amino]-propyl}-oxazolidin-3-yl)-4H-benzo[1,4]thiazin-3-one] returned an MIC of 0.125 µg/mL (≈ 0.275 µM).

Compound `O=C1CSc2ccc(N3CC(CCCNCc4cc5nccnc5s4)OC3=O)cc2N1` (racemic) [Example 10, rac-6-(2-oxo-5-{3-[(thieno[2,3-b]pyrazin-6-ylmethyl)-amino]-propyl}-oxazolidin-3-yl)-4H-benzo[1,4]thiazin-3-one] registered an MIC of 0.25 µg/mL (≈ 0.549 µM).

The compound `O=C1CSc2ccc(N3CC(CCCNCc4cnc5ccccc5c4)OC3=O)cc2N1` (racemic) [Example 11, rac-6-(2-oxo-5-{3-[(quinolin-3-ylmethyl)-amino]-propyl}-oxazolidin-3-yl)-4H-benzo[1,4]thiazin-3-one] had a minimum inhibitory concentration (MIC) of 4 µg/mL (≈ 8.92 µM).

With `O=C1CSc2ccc(N3CC(CCCNCc4ccc5ccccc5c4)OC3=O)cc2N1` (racemic) [Example 12, rac-6-(5-{3-[(naphthalen-2-ylmethyl)-amino]-propyl}-2-oxo-oxazolidin-3-yl)-4H-benzo[1,4]thiazin-3-one], it took 1 µg/mL (≈ 2.23 µM) to inhibit growth (MIC).

In turn, `O=C1CSc2ccc(N3CC(CCCNCc4ccc5cccnc5c4)OC3=O)cc2N1` (racemic) [Example 13, rac-6-(2-oxo-5-{3-[(quinolin-7-ylmethyl)-amino]-propyl}-oxazolidin-3-yl)-4H-benzo[1,4]thiazin-3-one] had an MIC of 0.5 µg/mL (≈ 1.11 µM).

The compound `O=C1CSc2ccc(N3CC(CCCNCc4ccc5ncccc5c4)OC3=O)cc2N1` (racemic) [Example 14, rac-6-(2-oxo-5-{3-[(quinolin-6-ylmethyl)-amino]-propyl}-oxazolidin-3-yl)-4H-benzo[1,4]thiazin-3-one] had an MIC of 1 µg/mL (≈ 2.23 µM).

Consider `O=C1COc2ccc(N3C[C@@H](CCCNCc4ccc5ccc(F)cc5n4)OC3=O)cc2N1` [Example 3, 6-((R)-5-{3-[(7-fluoro-quinolin-2-ylmethyl)-amino]-propyl}-2-oxo-oxazolidin-3-yl)-4H-benzo[1,4]oxazin-3-one], for which the minimal inhibitory concentration (MIC) was at most 0.031 µg/mL.

`O=C1COc2ccc(N3C[C@@H](CCCNCc4ccc5ccccc5n4)OC3=O)cc2N1` [Example 4, 6-((R)-2-oxo-5-{3-[(quinolin-2-ylmethyl)-amino]-propyl}-oxazolidin-3-yl)-4H-benzo[1,4]oxazin-3-one] displayed an MIC of 0.063 µg/mL (≈ 0.146 µM).

For `O=C1CSc2ccc(N3C[C@H](CNCCCc4ccc5ccccc5n4)OC3=O)cc2N1` [Example 5, 6-{(S)-2-oxo-5-[(3-quinolin-2-yl-propylamino)-methyl]-oxazolidin-3-yl}-4H-benzo[1,4]thiazin-3-one], the MIC is at most 0.031 µg/mL.

The compound `O=C1CSc2ccc(N3C[C@@H](CCNCc4ccc5ccccc5n4)OC3=O)cc2N1` [Example 15, 6-((R)-2-oxo-5-{2-[(quinolin-2-ylmethyl)-amino]-ethyl}-oxazolidin-3-yl)-4H-benzo[1,4]thiazin-3-one] gave a minimum inhibitory concentration (MIC) of at most 0.031 µg/mL.

Compound `O=C1CSc2ccc(N3C[C@@H](CCNCCc4ccc5ccccc5n4)OC3=O)cc2N1` [Example 16, 6-{(R)-2-oxo-5-[2-(2-quinolin-2-yl-ethylamino)-ethyl]-oxazolidin-3-yl}-4H-benzo[1,4]thiazin-3-one] returned an MIC of at most 0.031 µg/mL.

As to `COc1ccc2ccc(OC[C@@H]3CCN(C[C@@H]4CN(c5ccc6c(c5)NC(=O)CS6)C(=O)O4)C3)nc2c1` [Example 17, 6-{(R)-5-[(R)-3-(7-methoxy-quinolin-2-yloxymethyl)-pyrrolidin-1-ylmethyl]-2-oxo-oxazolidin-3-yl}-4H-benzo[1,4]thiazin-3-one], the minimum inhibitory concentration (MIC) was at most 0.031 µg/mL.

For the compound `COc1ccc2ccc(OCC3CCN(C[C@@H]4CN(c5ccc6c(c5)NC(=O)CS6)C(=O)O4)CC3)nc2c1` [Example 18, 6-{(R)-5-[4-(7-methoxy-quinolin-2-yloxymethyl)-piperidin-1-ylmethyl]-2-oxo-oxazolidin-3-yl}-4H-benzo[1,4]thiazin-3-one], the MIC worked out at 0.5 µg/mL (≈ 0.935 µM).

With `COc1ccc2ncc(OCC3CN(C[C@@H]4CN(c5ccc6c(c5)OCCO6)C(=O)O4)C3)nc2c1` [Example 19, (R)-3-(2,3-dihydro-benzo[1,4]dioxin-6-yl)-5-[3-(7-methoxy-quinoxalin-2-yloxymethyl)-azetidin-1-ylmethyl]-oxazolidin-2-one], the MIC stood at 0.25 µg/mL (≈ 0.522 µM).

For `COc1ccc2ncc(OCC3CN(CC[C@@H]4CN(c5ccc6c(c5)NC(=O)CS6)C(=O)O4)C3)nc2c1` [Example 20, 6-((R)-5-{2-[3-(7-methoxy-quinoxalin-2-yloxymethyl)-azetidin-1-yl]-ethyl}-2-oxo-oxazolidin-3-yl)-4H-benzo[1,4]thiazin-3-one], the MIC was at most 0.031 µg/mL.

`COc1ccc2ncc(OCC3CN(C[C@@H]4CN(c5ccc6c(c5)NC(=O)CS6)C(=O)O4)C3)nc2c1` [Example 21, 6-{(R)-5-[3-(7-methoxy-quinoxalin-2-yloxymethyl)-azetidin-1-ylmethyl]-2-oxo-oxazolidin-3-yl}-4H-benzo[1,4]thiazin-3-one] registered an MIC of at most 0.031 µg/mL.

For `COc1ccc2ncc(OCC3CN(C[C@@H]4CN(c5ccc6c(c5)NC(=O)CO6)C(=O)O4)C3)nc2c1` [Example 22, 6-{(R)-5-[3-(7-methoxy-quinoxalin-2-yloxymethyl)-azetidin-1-ylmethyl]-2-oxo-oxazolidin-3-yl}-4H-benzo[1,4]oxazin-3-one], the minimal inhibitory concentration (MIC) is at most 0.031 µg/mL.

On to `COc1ccc2ccc(OC3CC(NC[C@@H]4CN(c5ccc6c(c5)NC(=O)CS6)C(=O)O4)C3)nc2c1` (stereo partly drawn) [Example 23, 6-((R)-5-{[3-(7-methoxy-quinolin-2-yloxy)-cyclobutylamino]-methyl}-2-oxo-oxazolidin-3-yl)-4H-benzo[1,4]thiazin-3-one], for which the MIC was at most 0.031 µg/mL.

For the compound `O=C1CSc2ccc(N3C[C@@H](CNCCc4ccc5ccccc5n4)OC3=O)cc2N1` [Example 24, 6-{(R)-2-oxo-5-[(2-quinolin-2-yl-ethylamino)-methyl]-oxazolidin-3-yl}-4H-benzo[1,4]thiazin-3-one], the MIC was determined as 0.031 µg/mL (≈ 0.0713 µM).

On to `O=C1CSc2ccc(N3C[C@@H](CCCNCCc4ccc5ccccc5n4)OC3=O)cc2N1` [Example 25, 6-{(R)-2-oxo-5-[3-(2-quinolin-2-yl-ethylamino)-propyl]-oxazolidin-3-yl}-4H-benzo[1,4]thiazin-3-one], for which the minimum inhibitory concentration (MIC) came out at 0.125 µg/mL (≈ 0.27 µM).

The compound `O=C1COc2ccc(N3C[C@@H](CCNCCNc4ccc5ccccc5n4)OC3=O)cc2N1` [Example 26, 6-((R)-2-oxo-5-{2-[2-(quinolin-2-ylamino)-ethylamino]-ethyl}-oxazolidin-3-yl)-4H-benzo[1,4]oxazin-3-one] came in with an MIC of 0.25 µg/mL (≈ 0.559 µM).

Compound `O=C1CSc2ccc(N3C[C@@H](CNCCNCc4ccc5ccccc5n4)OC3=O)cc2N1` [Example 27, 6-[(R)-2-oxo-5-({2-[(quinolin-2-ylmethyl)-amino]-ethylamino}-methyl)-oxazolidin-3-yl]-4H-benzo[1,4]thiazin-3-one] gave a minimum inhibitory concentration (MIC) of 1 µg/mL (≈ 2.16 µM).

Compound `O=C1CSc2ccc(N3C[C@@H](CN4CCN(Cc5ccc6ccccc6n5)CC4)OC3=O)cc2N1` [Example 28, 6-[(R)-2-oxo-5-(4-quinolin-2-ylmethyl-piperazin-1-ylmethyl)-oxazolidin-3-yl]-4H-benzo[1,4]thiazin-3-one] registered an MIC of 0.063 µg/mL (≈ 0.129 µM).

Compound `COc1cnc2cc(CNCCC[C@H]3CN(c4ccc5c(c4)NC(=O)CS5)C(=O)O3)c(F)cc2n1` [Example 29, 6-((S)-5-{3-[(7-fluoro-2-methoxy-quinoxalin-6-ylmethyl)-amino]-propyl}-2-oxo-oxazolidin-3-yl)-4H-benzo[1,4]thiazin-3-one] gave an MIC of at most 0.031 µg/mL.
